Results taken from patent publication US20070238717A1, “Neuroprotection with Beta-Lactam Compounds” (Johns Hopkins University, priority 2003, published 2007).

Experiments:
EAAT2 = experiment: Spinal cord organotypic culture screen for EAAT2 protein expression (slot blot); assay type: cell-based, rat; conditions: for EAAT2 expression: positive controls, after 3 days in culture
Excerpt: Screening Assay for EAAT2 Protein overexpression. Spinal cord organotypic cultures and astroglial cultures are used to screen for drugs capable of stimulating EAAT2 synthesis and function. Organotypic cultures offer the advantage in that they maintain the normal architecture of neuron-astroglial interactions in vitro and are derived from post natal tissue; thus may better reflect astroglial responses in vivo (rather than embryonic cells). Thus a drug that acts either on an astrocyt—or induces neurons to secrete factors that alert astrocytes—better reflects the “natural” condition of delivering a drug to a whole animal.
Organotypic Spinal Cord. Spinal cord organotypic cultures have been described by us in detail in the past. Rothstein J D et al., N. Engl. J. Med. 1992; 326:1464-1468. Briefly, 300 um sections of rat lumbar spinal cord, from postnatal day 8-10 rat pups, are placed on Millipore Millicell CM semipermeable membranes. Each well contains 5 slices (FIG. 2A). Fifty-100 cultures can be prepared weekly. Each drug (10-100 μM) was added for 3-7 days, along with cell culture medium/serum. Cultures were harvested and 5-50 μg of tissue was applied to slot blot apparatus for detection of EAAT2 by standard Western blotting/chemiluminescence methods described in the past. Kuncl R W et al., Motor neuron diseases. In: Asbury A K et al., editors. Diseases of the Nervous System. 2 ed. Philadelphia: W. B. Saunders, 1992:1179-1208; Rothstein J D et al., Neuron 1994; 13:713-725. All antipeptide antibodies were affinity purified and highly specific for transporter subtypes. By this method, increases greater than 50% of expressed protein can be detected. For each antibody slot blot, the homogenates used are expected to be within the linear range for antibody detection, based on prior standard curves.
Screening Library-Assay Design. The library of compounds for these first studies was the NINDS Custom Collection from Microsource Discovery. The library is composed of 1040 compounds in 96 well plates, that also included positive control for transporter synthesis (dibutyryl cyclic AMP [dbcAMP], GDNF). […] The library is a unique collection of known bioactive compounds that permit the simultaneous evaluation of hundreds of marketed drugs and biochemical standards. Each compound was studied at a final concentration of 10-100 μM. All assays were performed in duplicate. Every blot included control—untreated tissue and a positive control, such as those identified above.
Data Analysis. All blots were analyzed by laser densitometry (BioRad Image Quant) and the duplicate points were averaged. Each blot included a positive control standard (e.g. dbcAMP) and a negative control standard (e.g. serum, DMSO). Data was kept in Excel Spreadsheets, using a numerical/text coding system. All positive drugs (positive defined as at least a 50% increased in protein expression) were re-evaluated.

[1] = intravenous, pediatric bacterial meningitis, after 3-4 hours; cited from earlier work
[2] = intravenous, antibiotic doses, after 0.5 hours; cited from earlier work
GLT1 = GLT1 expression in spinal cords of chronically treated G93A mice; assay type: in vivo
G93A SOD1 mice = experiment: In vivo neuroprotection in the G93A SOD1 mouse
Excerpt: Numerous studies have documented a contributory role for excess glutamate in this mouse model—and role for modulating glutamate receptors or transporters in neuroprotective strategies. Guo H., et al. Hum Mol. Genet. 2003; 12:2519-2532. Modest over expression—by a transgenic approach—can alter disease onset and/or survival.

[3] = system: primary cortical mixed neuronal-glial cell cultures; assay type: cell-based
Protocol: In Vitro Model of Ischemia—Oxygen glucose deprivation (FIG. 7A) The in vitro model of oxygen glucose deprivation (OGD) is a well known and well accepted model of acute neural injury. In our in vitro model of ischemia, one hour of oxygen glucose deprivation (OGD) is lethal to cultured neurons, with toxicity known to involve excess glutamate. However, when these cultures are preconditioned 24 hours prior to the lethal condition with transient OGD (5 minutes), there is a dramatic and robust resistance of neurons to cell death.
Method. Primary cortical mixed neuronal-glial cell cultures are prepared from gestation day 14-16 CD1 mice. The preparation of these cultures from mouse fetal cortex is well-described. Experiments are performed at days in vitro 13-15. In the experimental condition, cultures are subjected to oxygen glucose deprivation (OGD), an in-vitro model of ischemia. Cortical cells are either subjected to control treatment (media, modified Earle's balanced salt solution including glucose and bubbled with 5% CO2 95% O2, is changed alongside treatment groups, but no OGD is performed), or 5 minutes (sublethal) of OGD (using modified Earle's balanced salt solution which is devoid of glucose and bubbled with 10% H2, 85% N2, and […]). Anaerobic conditions are achieved using an anaerobic chamber at 37° C. OGD is terminated by exchange of media back to oxygenated growing medium. Twenty-four hours following the above, cortical cells are subjected either to no treatment, or one hour of OGD. Neuronal survival is determined by computer-assisted cell counting after staining with the fluorescent vital dyes propidium iodide (as an indicator of neuronal death) and Hoechst 33342 (as an indicator of total number of neurons) and is presented as percent of cell death. Glial nuclei fluoresce at a lower intensity and are gated out. […] Following 1 hour OGD, cells are returned to growing medium without drugs.

[4] = system: cultures prepared from GLT-1 null mice; experiment: Chronic motor neurodegeneration model in cultures prepared from GLT-1 null mice; assay type: cell-based; conditions: not shown
[5] = system: large ventral horn motor neurons in organotypic spinal cord cultures; experiment: In vitro model of chronic motor neurodegeneration (THA) in organotypic spinal cord cultures; assay type: cell-based, rat; conditions: THA 100 μM, 4 weeks, drug 0 to 100 μM, FIG. 7B
Protocol: In vitro model of chronic motor neurodegeneration (FIG. 7B). A model of chronic neurodegeneration was used, based on the blockade of glutamate transport in spinal cord organotypic cultures, with the non specific inhibitor threo-hytdroyxaspartate (THA) or TBOA. Chronic incubation of cultures with THA (or TBOA) leads to chronic increase in extra cellular glutamate and subsequent slow death of motor neurons (over 4 weeks).
To determine if drug induced GLT1 promoter activation, and the subsequent over expression of GLT1 protein could be neuroprotective, we used the organotypic spinal cord paradigm. Organotypic spinal cord cultures were prepared from lumbar spinal cords of 8-day-old rat pups, as described previously. […] No drugs were added for the first 7 days following culture preparation. THA was then added to experimental cultures at a concentration of 100 μM, which produces death of motor neurons within 3 to 4 weeks. […] After 4 weeks, cultures were fixed, and immuostained for neurofilament (SMI-32, Sternberger) to quantify large ventral horn motor neurons (a well established method to follow motor neuron survival in this system).

[6] = 200 mg/kg ip from approximately 12 weeks of age
[7] = started at 70 days of age, two weeks of therapy, vs saline

With `CCC(C)(C)C(=O)C(=O)N1CCC[C@H]1C(=O)OCCCc1cccnc1` [GPI-1046] as the molecule, how does the EAAT2 expression (EAAT2) read?
The EAAT2 expression was “large increase”.

Which “maximum CSF level in inflamed meninges” value [1] does the source give for `CO/N=C(\C(=O)N[C@@H]1C(=O)N2C(C(=O)O)=C(CSc3nc(=O)c(=O)[nH]n3C)CS[C@H]12)c1csc(N)n1` [ceftriaxone sodium] here?
The value was 1.3 to 44 µg/mL.

What about the “maximum average plasma level” value [2] of the same molecule?
Its value is 82 to 257 µg/mL.

For `CO/N=C(\C(=O)N[C@@H]1C(=O)N2C(C(=O)O)=C(CSc3nc(=O)c(=O)[nH]n3C)CS[C@H]12)c1csc(N)n1` [ceftriaxone], which “endogenous GLT1 expression in spinal cords” value (GLT1) is on record?
Its value is “increase endogenous GLT1 expression significantly”.

And the “increase of GLT1 protein and function” value (EAAT2; concentration used in the THA neuroprotection study)?
The value was “at least 3 fold”.

What about the EC50 (EAAT2; follow-up dose response analysis, FIG. 2F) of the same molecule?
Its EC50 is 3.5 µM.

What about the “age by which strength preservation was lost” value (G93A SOD1 mice; [6]) of the same molecule?
The value was ≤ 18 weeks.

What about the “persistence of strength effect” value (G93A SOD1 mice; [6]) of the same molecule?
Its value is 4 weeks.

And the “time after treatment at which strength effect was observed” value (G93A SOD1 mice; [6])?
The value was ≤ 7 days.

And the “loss of muscle strength (grip strength)” value (G93A SOD1 mice; 200 mg/kg ip from approximately 12 weeks of age, FIG. 7C)?
Its value is “significantly delayed”.

And the “increase of over all survival” value (G93A SOD1 mice; 200 mg/kg ip from approximately 12 weeks of age, FIG. 7D)?
Its value is 7 to 10 days.

And the “survival, earlier administration” value (G93A SOD1 mice; same dose started at 42 days of age)?
Its value is “survival was also increased”.

And the “hypercellular-associated gliosis and inflammation” value (G93A SOD1 mice; [7])?
The value was “reduction”.

What about the “motor neuron loss in vivo” value (G93A SOD1 mice; [7]) of the same molecule?
The value was “significant prevention”.

What about the “percentage of neuronal cell death” value ([3]; 1 μM added 48 hours prior to 1 hour OGD, 50% without drug) of the same molecule?
The value was 20%.

What about the “neuroprotection, acute administration” value ([3]; acute administration, 1 hour OGD) of the same molecule?
The value was “not protective”.

And the “neuroprotection in GLT-1 null cultures” value [4]?
Its value is “cannot be seen”.

What about the “motor neuron loss / neuroprotection” value [5] of the same molecule?
The value was “prevented motor neurons loss in a dose dependent manner”.

With `CO/N=C(\C(=O)N[C@@H]1C(=O)N2C(C(=O)O)=C(COC(N)=O)CS[C@H]12)c1ccco1` [cefuroxime] as the molecule, how does the “neuroprotection, pretreatment” value ([3]; compared with ceftriaxone, 1 hour OGD) read?
The value was “Comparable neuroprotection”.

For `CCCC(=O)Nc1ncnc2c1ncn2[C@@H]1O[C@@H]2COP(=O)(O)O[C@H]2[C@H]1OC(=O)CCC` [dbcAMP, dibutyryl cyclic AMP], which EAAT2 expression (EAAT2) is on record?
Its EAAT2 expression is “large increase”.

Which GLT1 levels (EAAT2) does the source give for `CN[C@H](CC(C)C)C(=O)N[C@H]1C(=O)N[C@@H](CC(N)=O)C(=O)N[C@H]2C(=O)N[C@H]3C(=O)N[C@H](C(=O)N[C@H](C(=O)O)c4cc(O)cc(O)c4-c4cc3ccc4O)[C@H](O)c3ccc(c(Cl)c3)Oc3cc2cc(c3O[C@@H]2O[C@H](CO)[C@@H](O)[C@H](O)[C@H]2O[C@H]2C[C@](C)(N)[C@H](O)[C@H](C)O2)Oc2ccc(cc2Cl)[C@H]1O` [vancomycin] here?
Its GLT1 levels is “did not alter”.

For penicillin, which “active in increasing EAAT2 in the first screen” value (EAAT2; first screen, 10-100 μM) is on record?
The value was “active”.

B1: GDNF: positive control for transporter synthesis (protein, UniProt P39905 78-211, looked up)
Glial cell line-derived …: SPDKQMAVLPRRERNRQAAAANPENSRGKGRRGQRGKNRGCVLTAIHLNVTDLGLGYETKEELIFRYCSGSCDAAETTYDKILKNLSRNRRLVSDKVGQACCRPIAFDDDLSFLDDNLVYHILRKHSAKRCGCI
For B1, which EAAT2 expression (EAAT2) is on record?
Its EAAT2 expression is “large increase”.
